Test results as given in US9708314B2, “Heterocyclic amide compound” (NISSAN CHEMICAL INDUSTRIES, LTD., priority 2013, dated 2017).

Key:
Format in all cases: in vivo
[1] = tested on: Abutilon theophrasti; experiment: Test Example 4: herbicidal effect by application to foliage (diluvial soil, plastic box); settings: application to foliage; for herbicidal effect, M (Abutilon theophrasti): 320 g/ha
Excerpt: (§1) 5 Herbicidal ratio of 90% or more (almost completely withered) 4 Herbicidal ratio of 70% or more and less than 90% 3 Herbicidal ratio of 40% or more and less than 70% 2 Herbicidal ratio of 20% or more and less than 40% 1 Herbicidal ratio of 5% or more and less than 20% 0 Herbicidal ratio of 5% or less (almost no effect) [Test Example 4] Herbicidal Effect Test by Application to Foliage Sterilized diluvial soil was placed in a plastic box having a length of 21 cm, a width of 13 cm, and a depth of 7 cm. Each of the seeds of Digitaria ciliaris, Setaria viridis, Echinochloa crus-galli var. crus-galli, Avena fatua, Alopecurus myosuroides, Lolium multiflorum Lam., Apera spica-venti., Abutilon theophrasti, Amaranthus retroflexus, Chenopodium album, Stellaria media, Galium spurium, Veronica persica, Zea mays, Glycine max, Oryza sativa, Triticum aestivum, Beta vulgaris ssp. vulgaris, and Brassica campestris L. was sowed in a spot-like manner and was covered with the soil of about 1.5 cm thick. Thereafter, the plants were grown in the greenhouse of 25° C. to 30° C. After the plants were grown for 14 days, the emulsion agent containing the compound of the present invention prepared in accordance with Formulation Example 2 was diluted with water so as to be a predetermined herbicide amount and the diluted compound was uniformly applied to a stem and leaf part with a small-size spray. Three weeks after the herbicide application, effects on each plant were investigated in accordance with the criteria of Test Example 1. A: Echinochloa oryzicola Vasing., B: Scirpus juncoides, C: Monochoria vaginalis, D: Leptochloa chinensis, E: Cyperus difformis, F: Digitaria ciliaris, G: Setaria viridis, H: Echinochloa crus-galli var. crus-galli, I: Avena fatua, J: Alopecurus myosuroides, K: Lolium multiflorum Lam., L: Apera spica-venti., M: Abutilon theophrasti, N: Amaranthus retroflexus, O: Chenopodium album, P: Stellaria media, Q: Galium spurium, R: Veronica persica, a: transplanted Oryza sativa, b: directly sowed Oryza sativa, c: Zea mays, d: Glycine max, e: Triticum aestivum, f: Beta vulgaris ssp. vulgaris, and g: Brassica campestris L. The application herbicide amount (g/ha) means an amount that a concentration is adjusted so that, when an application amount is converted into per hectare (1 ha), the herbicide is applied by the number of grams (g) of the described value.

[2] = tested on: Alopecurus myosuroides; experiment: as above; settings: application to foliage; for herbicidal effect, J (Alopecurus myosuroides): 320 g/ha
Excerpt: as §1

[3] = tested on: Amaranthus retroflexus; experiment: as above; settings: application to foliage; for herbicidal effect, N (Amaranthus retroflexus): 320 g/ha
Excerpt: as §1

[4] = tested on: Apera spica-venti.; experiment: as above; settings: application to foliage; for herbicidal effect, L (Apera spica-venti.): 320 g/ha
Excerpt: as §1

[5] = tested on: Avena fatua; experiment: as above; settings: application to foliage; for herbicidal effect, I (Avena fatua): 320 g/ha
Excerpt: as §1

[6] = tested on: Chenopodium album; experiment: as above; settings: application to foliage; for herbicidal effect, O (Chenopodium album): 320 g/ha
Excerpt: as §1

[7] = tested on: Digitaria ciliaris; experiment: as above; settings: application to foliage; for herbicidal effect, F (Digitaria ciliaris): 320 g/ha
Excerpt: as §1

[8] = tested on: Echinochloa crus-galli var. crus-galli; experiment: as above; settings: application to foliage; for herbicidal effect, H (Echinochloa crus-galli var. crus-galli): 320 g/ha
Excerpt: as §1

[9] = tested on: Galium spurium; experiment: as above; settings: application to foliage; for herbicidal effect, Q (Galium spurium): 320 g/ha
Excerpt: as §1

[10] = tested on: Lolium multiflorum Lam.; experiment: as above; settings: application to foliage; for herbicidal effect, K (Lolium multiflorum Lam.): 320 g/ha
Excerpt: as §1

[11] = tested on: Setaria viridis; experiment: as above; settings: application to foliage; for herbicidal effect, G (Setaria viridis): 320 g/ha
Excerpt: as §1

[12] = tested on: Stellaria media; experiment: as above; settings: application to foliage; for herbicidal effect, P (Stellaria media): 320 g/ha
Excerpt: as §1

[13] = tested on: Veronica persica; experiment: as above; settings: application to foliage; for herbicidal effect, R (Veronica persica): 320 g/ha
Excerpt: as §1

[14] = tested on: Beta vulgaris ssp. vulgaris; experiment: Test Example 4: effect on crop by application to foliage (diluvial soil, plastic box); settings: application to foliage; for effect on crop, f (Beta vulgaris ssp. vulgaris): 320 g/ha
Excerpt: as §1

[15] = tested on: Brassica campestris L.; experiment: as above; settings: application to foliage; for effect on crop, g (Brassica campestris L.): 320 g/ha
Excerpt: as §1

[16] = tested on: Glycine max; experiment: as above; settings: application to foliage; for effect on crop, c (Glycine max): 320 g/ha
Excerpt: as §1

[17] = tested on: Triticum aestivum; experiment: as above; settings: application to foliage; for effect on crop, e (Triticum aestivum): 320 g/ha
Excerpt: as §1

[18] = tested on: Zea mays; experiment: as above; settings: application to foliage; for effect on crop, b (Zea mays): 320 g/ha
Excerpt: as §1

[19] = tested on: directly sowed Oryza sativa; experiment: as above; settings: application to foliage; for effect on crop, d (directly sowed Oryza sativa): 320 g/ha
Excerpt: as §1

[20] = application herbicide amount 320 g/ha

| SMILES | herbicidal effect, M (Abutilon theophrasti) [1] | herbicidal effect, J (Alopecurus myosuroides) [2] | herbicidal effect, N (Amaranthus retroflexus) [3] | herbicidal effect, L (Apera spica-venti.) [4] | herbicidal effect, I (Avena fatua) [5] | herbicidal effect, O (Chenopodium album) [6] | herbicidal effect, F (Digitaria ciliaris) [7] | herbicidal effect, H (Echinochloa crus-galli var. crus-galli) [8] | herbicidal effect, Q (Galium spurium) [9] | herbicidal effect, K (Lolium multiflorum Lam.) [10] | herbicidal effect, G (Setaria viridis) [11] | herbicidal effect, P (Stellaria media) [12] | herbicidal effect, R (Veronica persica) [13] | effect on crop, f (Beta vulgaris ssp. vulgaris) [14] | effect on crop, g (Brassica campestris L.) [15] | effect on crop, c (Glycine max) [16] | effect on crop, e (Triticum aestivum) [17] | effect on crop, b (Zea mays) [18] | effect on crop, d (directly sowed Oryza sativa) [19] | other results |
| --- | --- | --- | --- | --- | --- | --- | --- | --- | --- | --- | --- | --- | --- | --- | --- | --- | --- | --- | --- | --- |
| CC(C)c1nnc2c(C(=O)Nc3nnnn3C)cc(C(F)(F)F)cn12 [2-018] |  |  |  |  |  |  |  |  |  |  |  |  |  |  |  |  |  |  |  | M: herbicidal effect on Abutilon theophrasti [1, 20]: 3 (Herbicidal ratio of 40% or more and less than 70%); J: herbicidal effect on Alopecurus myosuroides [2, 20]: 0 (Herbicidal ratio of 5% or less (almost no effect)); N: herbicidal effect on Amaranthus retroflexus [3, 20]: 3 (Herbicidal ratio of 40% or more and less than 70%); L: herbicidal effect on Apera spica-venti. [4, 20]: 0 (Herbicidal ratio of 5% or less (almost no effect)); I: herbicidal effect on Avena fatua [5, 20]: 0 (Herbicidal ratio of 5% or less (almost no effect)); O: herbicidal effect on Chenopodium album [6, 20]: 3 (Herbicidal ratio of 40% or more and less than 70%); F: herbicidal effect on Digitaria ciliaris [7, 20]: 2 (Herbicidal ratio of 20% or more and less than 40%); H: herbicidal effect on Echinochloa crus-galli var. crus-galli [8, 20]: 1 (Herbicidal ratio of 5% or more and less than 20%); Q: herbicidal effect on Galium spurium [9, 20]: 1 (Herbicidal ratio of 5% or more and less than 20%); K: herbicidal effect on Lolium multiflorum Lam. [10, 20]: 0 (Herbicidal ratio of 5% or less (almost no effect)); G: herbicidal effect on Setaria viridis [11, 20]: 1 (Herbicidal ratio of 5% or more and less than 20%); P: herbicidal effect on Stellaria media [12, 20]: 0 (Herbicidal ratio of 5% or less (almost no effect)); R: herbicidal effect on Veronica persica [13, 20]: 2 (Herbicidal ratio of 20% or more and less than 40%); f: effect on crop, Beta vulgaris ssp. vulgaris [14, 20]: 1 (Herbicidal ratio of 5% or more and less than 20%); g: effect on crop, Brassica campestris L. [15, 20]: 0 (Herbicidal ratio of 5% or less (almost no effect)); d: effect on crop, Glycine max [16, 20]: 0 (Herbicidal ratio of 5% or less (almost no effect)); e: effect on crop, Triticum aestivum [17, 20]: 0 (Herbicidal ratio of 5% or less (almost no effect)); c: effect on crop, Zea mays [18, 20]: 0 (Herbicidal ratio of 5% or less (almost no effect)); b: effect on crop, directly sowed Oryza sativa [19, 20]: 0 (Herbicidal ratio of 5% or less (almost no effect)) |
| CC(C)c1nnc2c(C(=O)Nc3ncnn3C)ccc(C(F)(F)F)n12 [4-001] | 5 (Herbicidal ratio of 90% or more (almost completely withered)) | 0 (Herbicidal ratio of 5% or less (almost no effect)) | 5 (Herbicidal ratio of 90% or more (almost completely withered)) | 0 (Herbicidal ratio of 5% or less (almost no effect)) | 1 (Herbicidal ratio of 5% or more and less than 20%) | 5 (Herbicidal ratio of 90% or more (almost completely withered)) | 1 (Herbicidal ratio of 5% or more and less than 20%) | 3 (Herbicidal ratio of 40% or more and less than 70%) | 3 (Herbicidal ratio of 40% or more and less than 70%) | 0 (Herbicidal ratio of 5% or less (almost no effect)) | 2 (Herbicidal ratio of 20% or more and less than 40%) | 3 (Herbicidal ratio of 40% or more and less than 70%) | 3 (Herbicidal ratio of 40% or more and less than 70%) | 2 (Herbicidal ratio of 20% or more and less than 40%) | 0 (Herbicidal ratio of 5% or less (almost no effect)) | 0 (Herbicidal ratio of 5% or less (almost no effect)) | 0 (Herbicidal ratio of 5% or less (almost no effect)) | 0 (Herbicidal ratio of 5% or less (almost no effect)) | 2 (Herbicidal ratio of 20% or more and less than 40%) |  |
| CC(C)c1nnc2c(C(=O)Nc3ncn[nH]3)ccc(C(F)(F)F)n12 [4-004] | 0 (Herbicidal ratio of 5% or less (almost no effect)) | 0 (Herbicidal ratio of 5% or less (almost no effect)) | 0 (Herbicidal ratio of 5% or less (almost no effect)) | 0 (Herbicidal ratio of 5% or less (almost no effect)) | 0 (Herbicidal ratio of 5% or less (almost no effect)) | 4 (Herbicidal ratio of 70% or more and less than 90%) | 0 (Herbicidal ratio of 5% or less (almost no effect)) | 0 (Herbicidal ratio of 5% or less (almost no effect)) | 0 (Herbicidal ratio of 5% or less (almost no effect)) | 0 (Herbicidal ratio of 5% or less (almost no effect)) | 0 (Herbicidal ratio of 5% or less (almost no effect)) | 0 (Herbicidal ratio of 5% or less (almost no effect)) | 0 (Herbicidal ratio of 5% or less (almost no effect)) | 0 (Herbicidal ratio of 5% or less (almost no effect)) | 0 (Herbicidal ratio of 5% or less (almost no effect)) | 0 (Herbicidal ratio of 5% or less (almost no effect)) | 0 (Herbicidal ratio of 5% or less (almost no effect)) | 0 (Herbicidal ratio of 5% or less (almost no effect)) | 0 (Herbicidal ratio of 5% or less (almost no effect)) |  |
| Cc1nnc(NC(=O)c2ccc(C(F)(F)F)n3c(=O)n(C)nc23)o1 [6-001] | 3 (Herbicidal ratio of 40% or more and less than 70%) | 0 (Herbicidal ratio of 5% or less (almost no effect)) | 3 (Herbicidal ratio of 40% or more and less than 70%) | 0 (Herbicidal ratio of 5% or less (almost no effect)) | 0 (Herbicidal ratio of 5% or less (almost no effect)) | 4 (Herbicidal ratio of 70% or more and less than 90%) | 1 (Herbicidal ratio of 5% or more and less than 20%) | 1 (Herbicidal ratio of 5% or more and less than 20%) | 2 (Herbicidal ratio of 20% or more and less than 40%) | 0 (Herbicidal ratio of 5% or less (almost no effect)) | 2 (Herbicidal ratio of 20% or more and less than 40%) | 4 (Herbicidal ratio of 70% or more and less than 90%) | 2 (Herbicidal ratio of 20% or more and less than 40%) | 3 (Herbicidal ratio of 40% or more and less than 70%) | 0 (Herbicidal ratio of 5% or less (almost no effect)) | 0 (Herbicidal ratio of 5% or less (almost no effect)) | 0 (Herbicidal ratio of 5% or less (almost no effect)) | 0 (Herbicidal ratio of 5% or less (almost no effect)) | 0 (Herbicidal ratio of 5% or less (almost no effect)) |  |
